{"source": "patent US20220380385A1", "about": "“PYRIMIDINE FIVE-MEMBERED NITROGEN HETEROCYCLIC DERIVATIVE, PREPARATION METHOD THEREOF AND PHARMACEUTICAL USE THEREOF” (TUOJIE BIOTECH(SHANGHAI) CO., LTD., priority 2019, published 2022)", "key": {"[1]": {"assay": "In vivo pharmacokinetics in cynomolgus monkeys (gavage)", "conditions": "male, plasma, po, 5 mg/kg, original drug, cynomolgus monkey, 5 mpk", "description": "Cynomolgus monkeys were used as the test animals. The plasma drug concentration at different times after the cynomolgus monkeys were given the compounds of the invention by gavage was determined by using the LC/MS/MS method. The in vivo pharmacokinetic behavior of the compounds of the present invention in cynomolgus monkeys was studied, and pharmacokinetic characteristics thereof were evaluated.\nTest animals: 3 healthy, 2-5 years old male cynomolgus monkeys in each group;\nAdministration by gavage: a certain amount of drug was weighed, and 0.5% by mass of hypromellose, 0.1% by volume of Tween 80 and 99.4% by volume of water were added thereto to formulate a white suspension at 1 mg/mL.\nThe cynomolgus monkeys were fasted overnight, and then the drug was administered by gavage at a dose of 5 mg/kg.\nCynomolgus monkeys were administered the compounds of the present invention by gavage. At 0.25, 0.5, 1, 2, 4, 8 and 24 hours after administration, 0.2 mL of blood was collected from the peripheral vein and placed in a test tube containing EDTA-K2. The tube was centrifuged at 2 to 8° C., 2000 rpm for 10 minutes to separate the plasma, which was stored at −75° C.\nDetermination of the content of the test compounds in cynomolgus monkey plasma after administration of different concentrations of drugs by gavage: 55 μL of cynomolgus monkey plasma at each time after administration was taken, and 200 μL of a solution of the internal standard verapamil or dexamethasone in acetonitrile. The mixture was mixed by vortexing for 30 seconds, centrifuged at 4° C., 3900 rpm for 15 minutes. The supernatant of the plasma samples were collected and diluted three times with water, and 15 μL was taken for LC/MS/MS analysis."}, "CYP2C9": {"target": "T1, CYP2C9 (Homo sapiens, UniProt P11712)", "T1 construct": "Mixed human liver microsomes from 150 donors; tissue Corning 452117; host or cells: pooled human liver microsomes (150 donors)", "T1 sequence (P11712 whole entry)": "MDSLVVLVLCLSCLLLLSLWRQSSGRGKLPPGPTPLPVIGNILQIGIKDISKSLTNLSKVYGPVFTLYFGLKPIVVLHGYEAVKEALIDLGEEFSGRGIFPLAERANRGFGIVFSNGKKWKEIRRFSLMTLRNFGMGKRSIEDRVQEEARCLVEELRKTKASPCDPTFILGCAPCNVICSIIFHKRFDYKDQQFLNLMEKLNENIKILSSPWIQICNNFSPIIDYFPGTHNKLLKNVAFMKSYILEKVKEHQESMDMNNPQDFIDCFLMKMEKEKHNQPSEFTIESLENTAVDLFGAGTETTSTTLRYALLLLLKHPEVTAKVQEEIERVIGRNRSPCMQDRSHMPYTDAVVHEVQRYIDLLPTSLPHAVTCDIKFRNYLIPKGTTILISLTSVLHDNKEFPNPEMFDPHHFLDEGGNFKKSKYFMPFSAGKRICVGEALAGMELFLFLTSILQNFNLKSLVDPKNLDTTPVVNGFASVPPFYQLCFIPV", "assay": "CYP inhibition in mixed human liver microsomes, CYP2C9 (diclofenac sodium)", "assay_type": "in vitro ADME", "description": "(§1) Mixed human liver microsomes from 150 donors (purchased from Corning, catalog number 452117) were used to evaluate the representative substrate metabolic responses of the five main human CYP subtypes (CYP1A2, CYP2C9, CYP2C19, CYP2D6 and CYP3A4/5). The influence of different concentrations of test compounds on the metabolic responses of phenacetin (CYP1A2), diclofenac sodium (CYP2C9), S-mephenytoin (CYP2C19), bufurolol hydrochloride (2D6) and midazolam (CYP3A4/5) was determined by liquid chromatography tandem mass spectrometry (LC/MS/MS).\n(§2) 200 μL of the reaction system (100 mmol/L phosphate buffer, pH 7.4, containing 0.3% DMSO, 0.6% acetonitrile and 0.1% methanol by volume respectively) with 30 µM phenacetin, 10 μM diclofenac sodium, 35 μM S-mephenytoin, 5 μM bufurolol hydrochloride, 3 μM midazolam, 1 mM NADPH, test compound (at a concentration of 0.1, 0.3, 1, 3, 10 and 30 μmol/L respectively) or positive compound or blank control and mixed human liver microsomes (0.2 mg/mL) was incubated at 37° C. for 5 minutes. […]\n(§3) The peak area was calculated based on the chromatograms. The residual activity ratio (%) was calculated using the following equation: […]\n(§4) The CYP median inhibitory concentration (IC50) was calculated by Excel XLfit 5.3.1.3."}, "[2]": {"assay": "In vitro metabolic stability in rat liver microsomes", "assay_type": "in vitro ADME", "conditions": "rat liver microsomes (male Wistar Han), NADPH, 37° C.; read-out: Intrinsic clearance rate", "description": "The concentration of the compound in the reaction system was determined by LC/MS/MS, so as to calculate the intrinsic clearance rate of the test compound and to evaluate the in vitro metabolic stability in rat liver microsomes.\n222.5 μL, 1.1236 mg/mL of a mixed solution of rat liver microsomes (male Wistar Han strain, purchased from Corning, catalog number 452511) and 25 μL, 10 mM of NADPH were added into the incubation plate. The mixture was mixed by vortexing for 10 seconds. The plate was incubated in a water bath at 37° C. for 8 minutes. 2.5 μL, 100 μM of the test compound or positive control was added to the incubation plate to start the reaction. The mixture was mixed by vortexing for 12 seconds, and incubated in a water bath at 37° C. The reaction was stopped by transferring 20 μL of the incubation system to a stop plate containing 100 μL of cold stop solution at 0.5, 5, 10, 15, 20 and 30 minutes. The mixture was mixed by vortexing for 2 minutes. The stop plate was centrifuged at 4000 rpm for 20 minutes, then left to stand at 4° C. for 30 minutes, and then centrifuged at 4000 rpm for 20 minutes. 40 μL of the supernatant of each compound was transferred to a 96-well injection plate, and 160 μL of pure water was added to dilute the samples.\nThe obtained samples were quantified by ion chromatogram, and the residual rate was calculated according to the peak area of the test compounds or positive control. The slope k was determined by linear regression of the natural logarithm of the residual rate to the incubation time by using Microsoft Excel.\nThe in vitro half-life (in vitro t1/2) was calculated from the slope: in vitro t1/2=−(0.693/k)\nThe following equation was used to convert in vitro half-life into intrinsic clearance rate (in vitro CLint, μL/min/mg protein):\nin vitro CLint=(0.693/t1/2)×(incubation volume (L)/protein amount (mg))"}, "CYP2D6": {"target": "T2, CYP2D6 (Homo sapiens, UniProt P10635)", "T2 construct": "Mixed human liver microsomes from 150 donors; tissue Corning 452117; host or cells: pooled human liver microsomes (150 donors)", "T2 sequence (P10635 whole entry)": "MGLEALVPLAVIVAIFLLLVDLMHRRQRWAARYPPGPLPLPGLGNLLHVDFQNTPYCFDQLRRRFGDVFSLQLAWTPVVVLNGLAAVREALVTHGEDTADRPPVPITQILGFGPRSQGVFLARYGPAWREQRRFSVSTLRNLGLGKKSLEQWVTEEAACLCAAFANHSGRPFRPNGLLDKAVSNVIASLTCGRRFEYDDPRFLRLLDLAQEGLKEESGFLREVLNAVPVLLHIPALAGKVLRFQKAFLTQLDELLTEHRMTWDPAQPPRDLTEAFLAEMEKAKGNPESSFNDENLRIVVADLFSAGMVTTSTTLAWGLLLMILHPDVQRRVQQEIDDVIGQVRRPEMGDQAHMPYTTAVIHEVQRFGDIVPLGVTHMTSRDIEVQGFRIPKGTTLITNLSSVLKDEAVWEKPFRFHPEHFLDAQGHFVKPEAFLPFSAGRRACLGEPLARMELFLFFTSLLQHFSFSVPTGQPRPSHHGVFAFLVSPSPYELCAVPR", "assay": "CYP inhibition in mixed human liver microsomes, CYP2D6 (bufurolol hydrochloride)", "assay_type": "in vitro ADME", "description": "as §1, §2, §3, §4"}}}
{"molecule": "[2H]C([2H])([2H])Nc1nccc(Sc2c(C)nc(N3CCC4(CC3)Cc3ncccc3[C@H]4N)n3ccnc23)c1Cl", "note": "[Example 3, (S)-1′-(8-((3-Chloro-2-((methyl-d3)amino)pyridin-4-yl)thio)-7-methylimidazo[1,2-c]pyrimidin-5-yl)-5,7-dihydrospiro[cyclopenta[b]pyridine-6,4′-piperidin]-5-amine]", "values": [{"measurement": "AUC", "setting": "[1]; read-out: Area under curve AUC", "value": 72.3, "unit": "µg·h/mL"}, {"measurement": "Cmax", "setting": "[1]; read-out: Maximum blood conc. Cmax", "value": 12.2, "unit": "µg/mL"}, {"measurement": "IC50", "setting": "CYP2C9", "value": "> 20", "unit": "µM"}, {"measurement": "microsomal CLint at 1 µM", "setting": "[2]", "value": "< 3", "unit": "µL/min/mg"}, {"measurement": "IC50", "setting": "CYP2D6", "value": "> 20", "unit": "µM"}]}
